In patent publication US8063065B2, “Azaindazole compounds as CCR1 receptor antagonists” (Boehringer Ingelheim International GmbH, priority 2008, dated 2011) one finds IC50 data, which are given here for 25 molecules.

Experiment [1] concerns the target T1, CCR1 (Homo sapiens, UniProt P32246).
T1 sequence (P32246 1-355): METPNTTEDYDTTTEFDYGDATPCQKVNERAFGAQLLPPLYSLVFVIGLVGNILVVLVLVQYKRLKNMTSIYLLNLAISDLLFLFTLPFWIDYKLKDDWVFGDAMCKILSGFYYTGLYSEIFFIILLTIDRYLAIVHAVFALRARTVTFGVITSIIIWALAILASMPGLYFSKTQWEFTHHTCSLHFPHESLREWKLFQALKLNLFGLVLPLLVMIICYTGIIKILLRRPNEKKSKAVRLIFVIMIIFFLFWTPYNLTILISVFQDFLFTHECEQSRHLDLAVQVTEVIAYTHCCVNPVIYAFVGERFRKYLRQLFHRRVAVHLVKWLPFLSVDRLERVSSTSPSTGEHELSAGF
Description: Method B: calcium flux in CCR1 transfected cells (Calcium 4 dye, […] FDSS6000), block of the CCR1/MIP-1α interaction. Particulars: Method B: Calcium 4 dye, MIP-1alpha at EC80. It is filed as cell-based. In short, it runs like this: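 Non-adherent cells stably expressing CCR1 and G-alpha-16 were loaded with Calcium 4 dye plus probenecid for 1 h at room temperature. Compounds (top 3,000 nM, 4-fold, 10 doses, 1% DMSO) in HBSS/20 mM HEPES pH 7.4 were incubated 30 min at 37 C, then 30 min at room temperature. MIP-1α at EC80 was added and calcium flux read on FDSS6000.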
Background: Calcium assays in cells follow changes in intracellular calcium, usually with a dye or a luminescent sensor.

The target in experiment [2] is T1, CCR1. Description: Method A: calcium flux in CCR1 transfected cells (Fluo-4 NW, FLIPR TETRA), block of the CCR1/MIP-1α interaction. It counts as cell-based. Particulars: Method A: Fluo-4 NW, MIP-1 alpha at EC80. In outline:
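Non-adherent cells stably expressing recombinant CCR1 and G-alpha-16, Fluo-4 NW-loaded 1 h at room temperature, preincubated 1 h with compound (top 3,000 nM, 4-fold, 10 doses; 1% DMSO) in HBSS/20 mM HEPES pH 7.4. MIP-1 alpha added at EC80; intracellular calcium flux recorded on FLIPR TETRA.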

SMILES strings stand for the structures.

For orientation: IC50 means the concentration that gives 50% inhibition.

For the molecule `C[C@@H](O)CNS(=O)(=O)c1ccc(CNC(=O)c2cncc3c2cnn3-c2ccc(F)cc2)cc1` [1-(4-Fluorophenyl)-1H-pyrazolo[3,4-c]pyridine-4-carboxylic acid 4-((R)-2-hydroxy-propylsulfamoyl)-benzylamide], the 50% inhibitory concentration (IC50) on CCR1 [1] turned out to be 1 nM; at CCR1 [2] it was 2 nM.

In the case of `CC[C@H](NC(=O)c1cncc2c1cnn2-c1ccc(F)cc1)c1cncc(S(=O)(=O)CCC(=O)O)c1` [3-[5-((S)-1-{[1-(4-Fluorophenyl)-1H-pyrazolo[3,4-c]pyridine-4-carbonyl]-amino}-propyl)-pyridine-3-sulfonyl]-propionic acid], the IC50 is 14 nM at CCR1 [1] and 35 nM at CCR1 [2].

For the molecule `C[C@H](NC(=O)c1cncc2c1cnn2-c1ccc(F)cc1)c1cncc(S(N)(=O)=O)c1` [1-(4-Fluorophenyl)-1H-pyrazolo[3,4-c]pyridine-4-carboxylic acid [(S)-1-(5-sulfamoyl-pyridin-3-yl)-ethyl]-amide], the concentration for half-maximal inhibition (IC50) on CCR1 [1] is 0.9 nM; at CCR1 [2], 2 nM.

Regarding `C[C@H](NC(=O)c1cncc2c1cnn2-c1ccc(F)cc1)c1ccc(S(C)(=O)=O)nc1` [1-(4-Fluorophenyl)-1H-pyrazolo[3,4-c]pyridine-4-carboxylic acid [(S)-1-(6-methanesulfonyl-pyridin-3-yl)-ethyl]-amide], the IC50 at CCR1 [1] was determined as 3 nM; on CCR1 [2], 9 nM.

For the molecule `CC[C@H](NC(=O)c1cncc2c1cnn2-c1ccc(F)cc1)c1cncc(S(=O)(=O)CC)c1` [1-(4-Fluorophenyl)-1H-pyrazolo[3,4-c]pyridine-4-carboxylic acid [(S)-1-(5-ethanesulfonyl-pyridin-3-yl)-propyl]-amide], the IC50 on CCR1 [1] was 0.3 nM; on CCR1 [2] it was 0.4 nM.

Take `C[C@H](O)CNS(=O)(=O)c1ccc(CNC(=O)c2cncc3c2cnn3-c2ccc(F)cc2)cc1` [1-(4-Fluorophenyl)-1H-pyrazolo[3,4-c]pyridine-4-carboxylic acid 4-((S)-2-hydroxy-propylsulfamoyl)-benzylamide]: the half-inhibitory concentration (IC50) is 0.8 nM at CCR1 [1] and 1 nM at CCR1 [2].

Turning to `CC[C@H](NC(=O)c1cncc2c1cnn2-c1ccc(F)cc1)c1cncc(S(C)(=O)=O)c1` [1-(4-Fluorophenyl)-1H-pyrazolo[3,4-c]pyridine-4-carboxylic acid [(S)-1-(5-methanesulfonyl-pyridin-3-yl)-propyl]-amide], the IC50 at CCR1 [1] is 0.2 nM; on CCR1 [2] it was 0.5 nM.

In the case of `C[C@H](NC(=O)c1cncc2c1cnn2-c1ccc(F)cc1)c1cncc(Br)c1` [1-(4-Fluorophenyl)-1H-pyrazolo[3,4-c]pyridine-4-carboxylic acid [(S)-1-(5-bromopyridin-3-yl)-ethyl]-amide], the IC50 at CCR1 [2] came to 1 nM.

As to `CN(C)S(=O)(=O)Nc1ccc(CNC(=O)c2cncc3c2cnn3-c2ccc(F)cc2)cn1` [1-(4-Fluorophenyl)-1H-pyrazolo[3,4-c]pyridine-4-carboxylic acid [6-(dimethylamino-sulfonylamino)-pyridin-3-ylmethyl]-amide], the half-maximal inhibitory concentration (IC50) on CCR1 [2] was 24 nM.

For the molecule `CS(=O)(=O)c1cccc(CNC(=O)c2cncc3c2cnn3-c2ccc(Cl)cc2)c1` [1-(4-Chlorophenyl)-1H-pyrazolo[3,4-c]pyridine-4-carboxylic acid 3-methanesulfonyl-benzylamide], the 50% inhibitory concentration (IC50) at CCR1 [2] came out at 7 nM.

Turning to `COc1cc(CNC(=O)c2cncc3c2cnn3-c2ccc(F)cc2)ccn1` [1-(4-Fluorophenyl)-1H-pyrazolo[3,4-c]pyridine-4-carboxylic acid (2-methoxy-pyridin-4-ylmethyl)-amide], the IC50 at CCR1 [2] was determined as 2 nM.

For `CCC[C@H](NC(=O)c1cncc2c1cnn2-c1ccc(F)cc1)c1cccnc1` [1-(4-Fluorophenyl)-1H-pyrazolo[3,4-c]pyridine-4-carboxylic acid ((S)-1-pyridin-3-yl-butyl)-amide], the half-inhibitory concentration (IC50) on CCR1 [2] came to 5 nM.

Take `CC(C)(CO)NS(=O)(=O)c1ccc(CNC(=O)c2cncc3c2cnn3-c2ccc(F)cc2)cc1` [1-(4-Fluorophenyl)-1H-pyrazolo[3,4-c]pyridine-4-carboxylic acid 4-(2-hydroxy-1,1-dimethyl-ethylsulfamoyl)-benzylamide]: at CCR1 [2], the IC50 amounted to 0.9 nM.

For the molecule `CCCC(NC(=O)c1cncc2c1cnn2-c1ccc(F)cc1)c1cncc(Br)c1` (stereo not shown) [1-(4-Fluorophenyl)-1H-pyrazolo[3,4-c]pyridine-4-carboxylic acid [1-(5-bromopyridin-3-yl)-butyl]-amide], the IC50 on CCR1 [2] worked out at 0.4 nM.

As to `O=C(NCc1ccc(S(=O)(=O)NCCO)cc1)c1cncc2c1cnn2-c1ccc(F)cc1` [1-(4-Fluorophenyl)-1H-pyrazolo[3,4-c]pyridine-4-carboxylic acid 4-(2-hydroxy-ethylsulfamoyl)-benzylamide], on CCR1 [2], the 50% inhibitory concentration (IC50) was 1 nM.

For the molecule `COC1CCN(S(=O)(=O)c2ccc(CNC(=O)c3cncc4c3cnn4-c3ccc(F)cc3)cc2)CC1` [1-(4-Fluorophenyl)-1H-pyrazolo[3,4-c]pyridine-4-carboxylic acid 4-(4-methoxy-piperidine-1-sulfonyl)-benzylamide], the IC50 on CCR1 [2] stood at 0.7 nM.

Turning to `CC(NC(=O)c1cncc2c1cnn2-c1ccc(F)cc1)c1ccc(Br)nc1` (stereo not shown) [1-(4-Fluorophenyl)-1H-pyrazolo[3,4-c]pyridine-4-carboxylic acid [1-(6-bromopyridin-3-yl)-ethyl]-amide], the IC50 at CCR1 [2] came to 30 nM.

`CS(=O)(=O)Nc1ccc(CNC(=O)c2cncc3c2cnn3-c2ccc(F)cc2)cc1` [1-(4-Fluorophenyl)-1H-pyrazolo[3,4-c]pyridine-4-carboxylic acid 4-methanesulfonylamino-benzylamide]: the concentration for half-maximal inhibition (IC50) on CCR1 [2] worked out at 7 nM.

As for `C=CC[C@H](NC(=O)c1cncc2c1cnn2-c1ccc(F)cc1)c1ccnc(S(=O)(=O)CC)c1` [1-(4-Fluorophenyl)-1H-pyrazolo[3,4-c]pyridine-4-carboxylic acid [(S)-1-(2-ethanesulfonyl-pyridin-4-yl)-but-3-enyl]-amide], the IC50 on CCR1 [1] stood at 0.4 nM; at CCR1 [2], 0.6 nM.

Turning to `O=C(NCc1ccc(S(=O)(=O)N2CCOCC2)nc1)c1cncc2c1cnn2-c1ccc(Cl)cc1` [1-(4-Chlorophenyl)-1H-pyrazolo[3,4-c]pyridine-4-carboxylic acid [6-(morpholine-4-sulfonyl)-pyridin-3-ylmethyl]-amide], the IC50 on CCR1 [2] was 3 nM.

In the case of `CNS(=O)(=O)c1ccc(CNC(=O)c2cncc3c2cnn3-c2ccc(F)cc2)c(Cl)c1` [1-(4-Fluorophenyl)-1H-pyrazolo[3,4-c]pyridine-4-carboxylic acid 2-chloro-4-methylsulfamoyl-benzylamide], on CCR1 [2], the IC50 came out at 0.2 nM.

For the molecule `O=C(NCc1ccc(CS(=O)(=O)N2CCCCC2)cc1)c1cncc2c1cnn2-c1ccc(F)cc1` [1-(4-Fluorophenyl)-1H-pyrazolo[3,4-c]pyridine-4-carboxylic acid 4-(piperidine-1-sulfonylmethyl)-benzylamide], the IC50 at CCR1 [2] came to 6 nM.

Consider `COC(=O)CNS(=O)(=O)c1ccc(CNC(=O)c2cncc3c2cnn3-c2ccc(F)cc2)cc1` [[4-({[1-(4-Fluorophenyl)-1H-pyrazolo[3,4-c]pyridine-4-carbonyl]-amino}-methyl)-benzenesulfonylamino]-acetic acid methyl ester], for which, at CCR1 [2], the IC50 was found to be 3 nM.

For the molecule `O=C(NCc1cncc(Br)c1)c1cncc2c1cnn2-c1ccc(F)cc1` [1-(4-Fluorophenyl)-1H-pyrazolo[3,4-c]pyridine-4-carboxylic acid (5-bromopyridin-3-ylmethyl)-amide], at CCR1 [2], the IC50 came to 13 nM.

Turning to `CC[C@H](NC(=O)c1cncc2c1cnn2-c1ccc(F)cc1)c1cccnc1` [1-(4-Fluorophenyl)-1H-pyrazolo[3,4-c]pyridine-4-carboxylic acid ((S)-1-pyridin-3-yl-propyl)-amide], the IC50 was determined as 8 nM on CCR1 [1] and 15 nM at CCR1 [2].
